Assay results reported in patent publication US20110165232A1, “Use of Opioid Antagonists for the Preparation of a Medicament in the Treatment of Retinal Degenerative Diseases” (AK KIMYA ITHALAT-IHRACAT VE SANAYII ANONIM SIRKETI, priority 2008, published 2011).

Legend:
human tumors = conditions: laboratory studies, low dose naltrexone methodology; cited from earlier work
Met-enkephalin = conditions: animal research, Ref 7; cited from earlier work
beta-endorphins = conditions: normal volunteers, LDN at bedtime, in the following days; cited from earlier work
[1] = test system: age related macular degeneration; assay: Case reports: low dose naltrexone regimen in patients with age related macular degeneration; assay type: in vivo, human; conditions: elderly person with age related macular degeneration, 4.5 mg per day at bedtime
Description: An […] has had age related macular degeneration for the last 11 years of […] life, experiencing progressive blurring in the center of […] vision. The degeneration led to loss of central vision […] from many daily activities. It […] very difficult to lead an independent life.
An […] has had age related macular degeneration for the last 10 years […]. […] experienced a loss of central vision […] to differentiate the colors of the surrounding objects and letters in the newspapers. […] […] began to differentiate the colors of the objects shown to […]; […] started to differentiate the big printed letters in the newspapers.

Compound: O=C1CC[C@@]2(O)[C@H]3Cc4ccc(O)c5c4[C@@]2(CCN3CC2CC2)[C@H]1O5 [naltrexone]
- inhibition of human tumors (human tumors): inhibition of different human tumors
- Met-enkephalin levels (Met-enkephalin): marked increase in Met-enkephalin levels
- levels of beta-endorphins in blood (beta-endorphins): higher levels of beta-endorphins in their blood
- quality of vision [1]: the quality of their vision started to improve
- time after initiation of therapy until vision began to improve [1]: Approximately 50 days
- quality of vision ([1]; listed as low dose naltrexone): improvement in the quality of their vision
- time after initiation of therapy until vision began to improve ([1]; listed as low dose naltrexone): 50 to 60 days
